Earlier results, collected in paper PMC3880013, “Toward an Understanding of Agonist Binding to Human Orexin-1 and Orexin-2 Receptors with G-Protein-Coupled Receptor Modeling and Site-Directed Mutagenesis” (Biochemistry, 2013).
Like-named read-outs stand apart in the source and are kept apart here. Marks after values point to notes of the source that are not given here. Where no end group is shown, it is not given here.

Legend:
hOX1 V130A = hOX1 V130A (3.36) relative to wild type, [Ca2+]i response, ref 37 Malherbe et al., cited from earlier work
hOX1 H344A = conditions: cited from earlier work; for ratio EC50(mut)/EC50(WT): hOX1 H344A (7.39) relative to wild type, [Ca2+]i response, ref 37 Malherbe et al.
Description: Other mutations had no major effect on efficacy. || An additional residue that plays a key role in OX receptor agonist binding and activation by Orexin peptides is H^7.39. […] We observed that in OX1, H^7.39 interacts with residues L16 and L20 of helix 1 of OxA (see Figure 6A). […] On the other hand, in OX2, H^7.39 interacts with L20 and not with L16 (see Figure 6B), and ...

hOX1 A127T = hOX1 A127T (3.33) relative to wild type; [Ca2+]i response; ref 37 Malherbe et al.; cited from earlier work
Description: (§1) Table 1 Comparison of the Effects of Different Mutations in hOX1 and hOX2 on the Binding Potencies of Orexin-A and Orexin-B ^a | column: hOX1 / ratio ^b of Orexin-A

hOX1 Q126A = hOX1 Q126A (3.32) relative to wild type; [Ca2+]i response; ref 37 Malherbe et al.; cited from earlier work
Description: as §1

hOX1 Y348A = hOX1 Y348A (7.43) relative to wild type; [Ca2+]i response; ref 37 Malherbe et al.; cited from earlier work
Description: as §1

hOX2 T111A = system: hOX2 T111A; design: method as in earlier work; conditions: hOX2 T111A (2.61) relative to wild type, [Ca2+]i response, ref 37 Malherbe et al., cited from earlier work
hOX2 Q134A = system: hOX2 Q134A; design: method as in earlier work; conditions: hOX2 Q134A (3.32) relative to wild type; [Ca2+]i response; ref 37 Malherbe et al.; cited from earlier work
hOX2 W214A = system: hOX2 W214A; design: method as in earlier work; conditions: hOX2 W214A (45.54) relative to wild type, [Ca2+]i response, ref 37 Malherbe et al., cited from earlier work
hOX2 Y223A = system: hOX2 Y223A; design: method as in earlier work; conditions: hOX2 Y223A (5.38) relative to wild type, [Ca2+]i response, ref 37 Malherbe et al., cited from earlier work
hOX2 F227A = conditions: cited from earlier work; for ratio EC50(mut)/EC50(WT): hOX2 F227A (5.42) relative to wild type, [Ca2+]i response, ref 37 Malherbe et al.
Description: In the case of OX1, F^5.42 interacts with H26 of OxA that, based on the SDM experiments, has an only moderate impact on potency (see Figure 6A). This is in contrast to OX2 in which F^5.42 interacts with key residue I30 (see Figure 6B). Mutation of I30 of OxA to alanine complet ...

hOX2 F228A = hOX2 F228A (5.43) relative to wild type; [Ca2+]i response; ref 37 Malherbe et al.; cited from earlier work
Description: (§2) Table 1 Comparison of the Effects of Different Mutations in hOX1 and hOX2 on the Binding Potencies of Orexin-A and Orexin-B ^a | column: hOX2 / ratio ^b of Orexin-A

hOX2 I320A = hOX2 I320A (6.51) relative to wild type; [Ca2+]i response; ref 37 Malherbe et al.; cited from earlier work
Description: as §2

hOX2 T135A = hOX2 T135A (3.33) relative to wild type; [Ca2+]i response; ref 37 Malherbe et al.; cited from earlier work
Description: as §2

hOX2 Y354A = hOX2 Y354A (7.43) relative to wild type; [Ca2+]i response; ref 37 Malherbe et al.; cited from earlier work
Description: as §2

hOX2 Y232A = system: hOX2 Y232A; design: method as in 2 sources, one per row (each row's own in cited_ref): ref 37 Malherbe et al. ||| ref 37 = [37]; PMID 20404073; doi:10.1124/mol.110.064584; Malherbe P.; Roche O.; Marcuz A.; Kratzeisen C.; Wettstein J. G.; Bissantz C. ( 2010 ) Mapping the Binding Pocket of Dual Antagonist Almorexant to Human Orexin 1 and Orexin 2 Receptors: Compariso; conditions: cited from earlier work; for ratio EC50(mut)/EC50(WT): hOX2 Y232A (5.47) relative to wild type, [Ca2+]i response, ref 37 Malherbe et al.
hOX2 Y317A = conditions: cited from earlier work; for ratio EC50(mut)/EC50(WT): hOX2 Y317A (6.48) relative to wild type, [Ca2+]i response, ref 37 Malherbe et al.
Description: D211^45.51 is in the proximity of L19. L19 and L20 form hydrophobic interactions with W214^45.54 and H350^7.39, respectively. […] In the case of OX2, Y223^5.38 forms an interaction with H26 of OxA. F227^5.42 forms a ...

hOX2 F346A = system: hOX2 F346A; design: method as in earlier work; conditions: hOX2 F346A (7.35) relative to wild type, [Ca2+]i response, ref 37 Malherbe et al., cited from earlier work
hOX2 H350A = conditions: cited from earlier work; for ratio EC50(mut)/EC50(WT): hOX2 H350A (7.39) relative to wild type, [Ca2+]i response, ref 37 Malherbe et al.
Description: We observed that in OX1, H^7.39 interacts with residues L16 and L20 of helix 1 of OxA (see Figure 6A). […] On the other hand, in OX2, H^7.39 interacts with L20 and not with L16 (see Figure 6B), and ...

In the case of “Orexin-A (QPLPDCCRQKTCSCRLYELLHGAGNHAAGILTL; ends and bridges not checked; cysteine pairing not given here; UniProt O43612 34-66, looked up) [hypothalamic neuropeptide, 33 amino acids, two intramolecular disulfide bonds C6-C12 and C7-C14; natural OX1/OX2 agonist]”, the “ratio EC50(mut)/EC50(WT)” value (hOX1 V130A) is listed as 30.6 ^c fold, the “ratio EC50(mut)/EC50(WT)” value (hOX1 V130A; listed as OxA) is listed as 30.6 fold and the “decrease in Emax” value (hOX1 H344A; OX1 H7.39 (H344) mutated to alanine) is listed as 64.5%. For the same substance, the “ratio EC50(mut)/EC50(WT)” value (hOX1 H344A) was 241.1 ^c fold, the “ratio EC50(mut)/EC50(WT)” value (hOX1 H344A; listed as OxA) was 241.1 fold and the “ratio EC50(mut)/EC50(WT)” value (hOX1 A127T) was 1.8 ^c fold. The “ratio EC50(mut)/EC50(WT)” value (hOX1 Q126A) was 2.4 ^c fold, the “ratio EC50(mut)/EC50(WT)” value (hOX1 Y348A) was 8.7 ^c fold and the “ratio EC50(mut)/EC50(WT)” value (hOX2 T111A) was 243.5 ^c fold. For the same substance, the “ratio EC50(mut)/EC50(WT)” value (hOX2 T111A; listed as OxA) was 243.5 fold, the “ratio EC50(mut)/EC50(WT)” value (hOX2 Q134A) was 22.3 fold and the “ratio EC50(mut)/EC50(WT)” value (hOX2 W214A) was 62.4 ^c fold. For the same substance, the “ratio EC50(mut)/EC50(WT)” value (hOX2 W214A; listed as OxA) was 62.4 fold, the “ratio EC50(mut)/EC50(WT)” value (hOX2 Y223A) was 183.9 ^c fold and the “ratio EC50(mut)/EC50(WT)” value (hOX2 Y223A; listed as OxA) was 183.9 fold. The “efficacy (reduced to)” value (hOX2 F227A; hOX2 F5.42 (F227) mutated to alanine) was 64.3%, the “ratio EC50(mut)/EC50(WT)” value (hOX2 F227A) was 240.3 ^c fold and the “ratio EC50(mut)/EC50(WT)” value (hOX2 F227A; listed as OxA) was 240.3 fold. For the same substance, the “ratio EC50(mut)/EC50(WT)” value (hOX2 F228A) was 3.0 ^c fold, the “ratio EC50(mut)/EC50(WT)” value (hOX2 I320A) was 0.9 ^c fold and the “ratio EC50(mut)/EC50(WT)” value (hOX2 T135A) was 0.8 ^c fold. The “ratio EC50(mut)/EC50(WT)” value (hOX2 Y354A) was 3.7 ^c fold, the “ratio EC50(mut)/EC50(WT)” value (hOX2 Y232A) was 28.4 ^c fold and the “ratio EC50(mut)/EC50(WT)” value (hOX2 Y232A; listed as OxA) was 28.4 fold. For the same substance, the “Emax (decreased)” value (hOX2 Y232A; hOX2 Y232A compared with WT) was 44.9%, the “ratio EC50(mut)/EC50(WT)” value (hOX2 Y317A) was 17.7 ^c fold and the “ratio EC50(mut)/EC50(WT)” value (hOX2 Y317A; listed as OxA) was 17.7 fold. For the same substance, the “relative Emax (decreases to)” value (hOX2 Y317A; hOX2 Y317A compared with WT) was 49.6%, the “ratio EC50(mut)/EC50(WT)” value (hOX2 F346A) was 54.5 ^c fold and the “ratio EC50(mut)/EC50(WT)” value (hOX2 F346A; listed as OxA) was 54.5 fold. The “decrease in Emax” value (hOX2 H350A; OX2 H7.39 (H350) mutated to alanine) was 63.0%, the “ratio EC50(mut)/EC50(WT)” value (hOX2 H350A) was 49.5 ^c fold and the “ratio EC50(mut)/EC50(WT)” value (hOX2 H350A; listed as OxA) was 49.5 fold.
